Drawing on ChEMBL document CHEMBL3864167, “Structure-Activity Relationship, Drug Metabolism and Pharmacokinetics Properties Optimization, and in Vivo Studies of New Brain Penetrant Triple T-Type Calcium Channel Blockers” (J Med Chem, 2016), this text covers IC50 and microsomal CLint for 42 compounds.

For data set [1], the target named is Voltage-dependent T-type calcium channel subunit alpha-1I (Homo sapiens, UniProt Q9P0X4). As to the kind of experiment: Channel blocking activity at recombinant human CaV 3.3 channel expressed in HEK293 cells assessed as inhibition of Ca2+ flux preincubated for 3 mins followed by CaCl2 addition by fluo-4 dye-based FLIPR assay. Type of data set: cell-based.
Data set [2] concerns the target Voltage-dependent T-type calcium channel subunit alpha-1H (Homo sapiens, UniProt O95180). In words: Channel blocking activity at recombinant human CaV 3.2 channel expressed in HEK293 cells assessed as inhibition of Ca2+ flux preincubated for 3 mins followed by CaCl2 addition by fluo-4 dye-based FLIPR assay. The format is cell-based.
In data set [3] the target is Voltage-dependent T-type calcium channel subunit alpha-1G (Homo sapiens, UniProt O43497). As to the kind of experiment: Channel blocking activity at recombinant human CaV 3.1 channel expressed in HEK293 cells assessed as inhibition of Ca2+ flux preincubated for 3 mins followed by CaCl2 addition by fluo-4 dye-based FLIPR assay. The format is cell-based. (In general: Calcium flux is commonly read through the fluorescence of an indicator in the cells.)

A short description of data set [4]: Intrinsic clearance in human liver microsomes at 1 uM up to 15 mins in presence of NADPH by LC-MS-MS analysis. Type of data set: ADME. Particulars: read-out: CLH. (Microsomes from liver hold many membrane-bound enzymes, among them those of drug oxidation.)

Molecules are shown by their SMILES. Bounds are passed on as bounds.

Chain of Voltage-dependent T-type calcium channel subunit alpha-1H (O95180 whole entry): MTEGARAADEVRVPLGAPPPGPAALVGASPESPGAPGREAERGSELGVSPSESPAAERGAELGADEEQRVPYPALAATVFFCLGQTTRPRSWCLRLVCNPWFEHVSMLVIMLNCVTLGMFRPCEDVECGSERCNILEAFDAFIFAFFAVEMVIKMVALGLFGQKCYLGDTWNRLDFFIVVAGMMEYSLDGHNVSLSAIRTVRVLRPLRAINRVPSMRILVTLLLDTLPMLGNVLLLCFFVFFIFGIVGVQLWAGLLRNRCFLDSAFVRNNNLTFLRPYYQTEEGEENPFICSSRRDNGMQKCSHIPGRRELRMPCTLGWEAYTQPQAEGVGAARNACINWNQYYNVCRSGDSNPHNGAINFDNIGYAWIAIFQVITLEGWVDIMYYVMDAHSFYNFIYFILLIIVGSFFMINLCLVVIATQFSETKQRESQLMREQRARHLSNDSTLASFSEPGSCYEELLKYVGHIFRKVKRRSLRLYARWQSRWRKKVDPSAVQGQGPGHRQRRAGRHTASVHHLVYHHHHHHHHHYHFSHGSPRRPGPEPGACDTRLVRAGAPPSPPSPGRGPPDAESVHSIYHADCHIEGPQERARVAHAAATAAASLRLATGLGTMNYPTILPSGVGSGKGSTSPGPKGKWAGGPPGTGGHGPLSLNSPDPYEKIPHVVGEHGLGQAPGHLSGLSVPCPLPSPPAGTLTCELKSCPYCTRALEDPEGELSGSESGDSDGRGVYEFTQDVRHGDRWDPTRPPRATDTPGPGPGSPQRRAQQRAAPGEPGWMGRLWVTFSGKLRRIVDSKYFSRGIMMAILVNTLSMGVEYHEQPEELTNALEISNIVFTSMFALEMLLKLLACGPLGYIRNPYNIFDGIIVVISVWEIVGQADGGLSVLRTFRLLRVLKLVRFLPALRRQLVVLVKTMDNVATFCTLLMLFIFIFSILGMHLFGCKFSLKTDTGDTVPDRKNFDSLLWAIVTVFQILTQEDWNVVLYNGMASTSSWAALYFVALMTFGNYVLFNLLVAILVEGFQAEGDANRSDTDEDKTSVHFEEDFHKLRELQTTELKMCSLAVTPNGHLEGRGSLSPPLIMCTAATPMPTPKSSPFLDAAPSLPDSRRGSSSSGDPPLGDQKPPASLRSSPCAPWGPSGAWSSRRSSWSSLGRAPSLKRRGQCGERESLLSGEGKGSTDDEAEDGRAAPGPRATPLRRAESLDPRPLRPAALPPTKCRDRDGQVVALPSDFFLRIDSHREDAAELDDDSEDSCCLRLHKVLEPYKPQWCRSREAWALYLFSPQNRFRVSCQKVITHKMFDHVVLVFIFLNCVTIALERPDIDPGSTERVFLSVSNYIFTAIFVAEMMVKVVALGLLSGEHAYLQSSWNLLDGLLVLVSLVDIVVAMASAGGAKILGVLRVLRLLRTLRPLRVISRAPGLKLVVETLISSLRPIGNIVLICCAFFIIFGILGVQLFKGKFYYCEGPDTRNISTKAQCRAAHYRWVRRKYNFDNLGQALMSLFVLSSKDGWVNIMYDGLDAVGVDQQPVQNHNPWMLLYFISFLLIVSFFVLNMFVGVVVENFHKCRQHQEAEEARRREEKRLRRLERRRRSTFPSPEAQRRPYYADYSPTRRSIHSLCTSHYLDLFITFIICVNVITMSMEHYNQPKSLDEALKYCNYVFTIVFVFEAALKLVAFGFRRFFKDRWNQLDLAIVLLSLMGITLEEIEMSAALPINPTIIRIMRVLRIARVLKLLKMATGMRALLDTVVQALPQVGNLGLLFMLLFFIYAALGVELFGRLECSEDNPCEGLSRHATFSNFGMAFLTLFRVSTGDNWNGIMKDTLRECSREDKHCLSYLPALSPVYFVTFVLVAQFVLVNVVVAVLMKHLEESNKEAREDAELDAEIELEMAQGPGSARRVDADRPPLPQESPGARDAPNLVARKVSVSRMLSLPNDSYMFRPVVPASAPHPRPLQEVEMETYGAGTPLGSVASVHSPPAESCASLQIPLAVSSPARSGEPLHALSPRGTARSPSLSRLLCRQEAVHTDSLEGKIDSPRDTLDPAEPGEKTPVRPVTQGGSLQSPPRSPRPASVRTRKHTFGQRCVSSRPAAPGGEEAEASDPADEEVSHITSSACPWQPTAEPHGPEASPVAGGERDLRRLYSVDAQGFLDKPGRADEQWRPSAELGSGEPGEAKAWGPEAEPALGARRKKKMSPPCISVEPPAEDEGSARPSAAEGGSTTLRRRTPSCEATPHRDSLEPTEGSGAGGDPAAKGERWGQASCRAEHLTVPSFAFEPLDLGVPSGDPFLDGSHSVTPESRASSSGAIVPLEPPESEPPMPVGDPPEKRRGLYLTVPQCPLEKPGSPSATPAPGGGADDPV
Chain of Voltage-dependent T-type calcium channel subunit alpha-1G (O43497 whole entry): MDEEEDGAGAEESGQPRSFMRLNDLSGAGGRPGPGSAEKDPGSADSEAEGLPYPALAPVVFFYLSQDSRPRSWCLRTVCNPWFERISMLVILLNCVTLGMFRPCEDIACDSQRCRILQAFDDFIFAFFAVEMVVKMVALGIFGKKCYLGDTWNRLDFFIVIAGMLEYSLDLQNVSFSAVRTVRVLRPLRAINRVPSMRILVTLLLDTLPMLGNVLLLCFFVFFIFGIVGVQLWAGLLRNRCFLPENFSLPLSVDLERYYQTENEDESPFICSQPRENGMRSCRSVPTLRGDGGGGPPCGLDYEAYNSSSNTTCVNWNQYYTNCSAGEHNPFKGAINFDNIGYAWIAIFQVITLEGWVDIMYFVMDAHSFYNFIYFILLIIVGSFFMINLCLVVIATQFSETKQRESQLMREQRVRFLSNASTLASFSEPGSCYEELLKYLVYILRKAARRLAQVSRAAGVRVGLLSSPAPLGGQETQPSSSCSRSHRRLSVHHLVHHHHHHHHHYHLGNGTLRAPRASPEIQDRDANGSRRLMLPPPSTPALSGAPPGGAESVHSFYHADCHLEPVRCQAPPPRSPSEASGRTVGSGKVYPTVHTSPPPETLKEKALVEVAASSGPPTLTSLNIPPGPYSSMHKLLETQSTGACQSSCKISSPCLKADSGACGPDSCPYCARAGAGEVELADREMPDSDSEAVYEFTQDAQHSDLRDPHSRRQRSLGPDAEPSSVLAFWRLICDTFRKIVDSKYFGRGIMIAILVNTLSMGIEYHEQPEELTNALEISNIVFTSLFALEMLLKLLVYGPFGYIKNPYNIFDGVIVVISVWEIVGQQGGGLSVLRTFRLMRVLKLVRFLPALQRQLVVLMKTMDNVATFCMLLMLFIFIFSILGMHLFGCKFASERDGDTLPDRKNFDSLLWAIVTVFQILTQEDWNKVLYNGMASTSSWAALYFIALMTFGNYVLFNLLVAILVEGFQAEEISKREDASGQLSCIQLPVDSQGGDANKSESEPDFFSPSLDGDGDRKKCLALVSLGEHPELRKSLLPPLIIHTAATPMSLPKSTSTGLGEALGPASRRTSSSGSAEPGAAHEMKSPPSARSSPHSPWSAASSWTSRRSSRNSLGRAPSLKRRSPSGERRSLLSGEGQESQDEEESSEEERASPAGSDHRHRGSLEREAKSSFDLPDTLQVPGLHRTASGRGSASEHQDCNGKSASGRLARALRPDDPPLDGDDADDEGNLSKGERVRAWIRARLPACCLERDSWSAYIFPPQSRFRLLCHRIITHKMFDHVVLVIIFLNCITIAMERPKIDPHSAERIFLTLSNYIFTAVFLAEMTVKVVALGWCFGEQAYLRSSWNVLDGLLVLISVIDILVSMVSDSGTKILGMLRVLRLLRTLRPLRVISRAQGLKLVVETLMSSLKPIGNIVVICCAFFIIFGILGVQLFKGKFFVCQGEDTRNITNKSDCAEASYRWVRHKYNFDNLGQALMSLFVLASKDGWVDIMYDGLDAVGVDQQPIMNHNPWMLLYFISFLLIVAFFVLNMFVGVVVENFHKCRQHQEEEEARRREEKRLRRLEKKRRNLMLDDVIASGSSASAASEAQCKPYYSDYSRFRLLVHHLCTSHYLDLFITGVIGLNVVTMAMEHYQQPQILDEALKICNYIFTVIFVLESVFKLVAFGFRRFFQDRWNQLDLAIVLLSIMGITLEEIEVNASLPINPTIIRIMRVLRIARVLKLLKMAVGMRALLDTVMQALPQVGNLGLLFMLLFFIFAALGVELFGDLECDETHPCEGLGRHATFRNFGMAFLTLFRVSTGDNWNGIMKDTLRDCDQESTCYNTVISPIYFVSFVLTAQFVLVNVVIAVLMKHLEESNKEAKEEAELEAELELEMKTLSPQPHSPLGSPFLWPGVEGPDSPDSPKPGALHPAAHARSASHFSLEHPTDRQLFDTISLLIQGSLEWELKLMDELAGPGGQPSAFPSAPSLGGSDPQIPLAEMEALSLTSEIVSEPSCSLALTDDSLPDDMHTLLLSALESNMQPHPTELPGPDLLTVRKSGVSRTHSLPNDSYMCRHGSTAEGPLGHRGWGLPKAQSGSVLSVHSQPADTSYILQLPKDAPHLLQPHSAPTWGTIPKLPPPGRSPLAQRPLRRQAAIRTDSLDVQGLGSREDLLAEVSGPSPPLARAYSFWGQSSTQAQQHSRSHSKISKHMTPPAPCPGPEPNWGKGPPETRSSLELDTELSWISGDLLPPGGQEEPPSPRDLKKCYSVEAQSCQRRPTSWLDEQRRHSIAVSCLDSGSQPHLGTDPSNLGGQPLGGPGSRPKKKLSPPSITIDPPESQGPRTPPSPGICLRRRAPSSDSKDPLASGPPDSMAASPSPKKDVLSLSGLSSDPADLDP

Consider `C[C@@H]1CN(Cc2ccccc2)c2ccccc2[C@H](C)N1C(=O)NCc1ccccc1`, for which the IC50 in data set [1] was 2 nM; in data set [2], 17 nM; in data set [3], 5 nM.
The like results for `C[C@@H]1c2ccccc2N(Cc2ccccc2)C[C@H](C)N1C(=O)NCc1ccccc1` were, in that order, 641 nM, 358 nM and 262 nM.
For the compound `C[C@@H]1c2ccncc2N(Cc2ccccc2)C[C@H](C)N1C(=O)NCc1ccccc1`, the IC50 in data set [1] was greater than 10000 nM; in data set [2] it was greater than 11000 nM; in data set [3] it was greater than 10000 nM.
As to `O=C(NCc1ccccc1)N1CCN(Cc2ccccc2)c2ccccc2C1`, the concentration for half-maximal inhibition (IC50) in data set [1] was 214 nM; in data set [2], 392 nM; in data set [3], 305 nM. The microsomal CLint at 1 µM in data set [4] was greater than 1250 µL/min/mg.
The like results for `C[C@H]1c2ccccc2N(Cc2ccccc2)CCN1C(=O)NCc1ccccc1` (racemic) were, in that order, 164 nM, 241 nM, 193 nM and greater than 1250 µL/min/mg.
On to `C[C@@H]1CN(Cc2cccc(F)c2)c2ccccc2[C@H](C)N1C(=O)Nc1cccnc1` (racemic), for which the results for the IC50 in data set [1], in data set [2] and in data set [3] were 5 nM, 14 nM and 8 nM, respectively. In addition, the microsomal CLint at 1 µM in data set [4] was greater than 1250 µL/min/mg.
Taken in the same sequence, the figures for `C[C@@H]1CN(Cc2ccc(F)cc2)c2ccccc2[C@H](C)N1C(=O)Nc1cccnc1` (racemic) were 7 nM, 31 nM, 25 nM and greater than 1250 µL/min/mg.
The like results for `C[C@@H]1C(=O)N(Cc2ccccc2)c2ccccc2[C@H](C)N1C(=O)NCc1ccccc1` (racemic) were, in that order, 259 nM, 682 nM, 304 nM and greater than 1250 µL/min/mg.
For the compound `COc1cc2c(cc1F)N(Cc1ccccc1)C[C@@H](C)N(C(=O)Nc1cccnc1)[C@H]2C` (racemic), the results for the IC50 in data set [1], in data set [2] and in data set [3] were 73 nM, 414 nM and 370 nM, respectively.
The like results for `Cc1ccc2c(c1)N(Cc1ccccc1)C[C@@H](C)N(C(=O)Nc1cccnc1)[C@H]2C` (racemic) were, in that order, 74 nM, 231 nM and 227 nM.
Taken in the same sequence, the figures for `C[C@@H]1CN(C(=O)NCc2ccccc2)[C@@H](C)c2ccccc2N1Cc1ccccc1` (racemic) were 326 nM, 198 nM and 211 nM.
The like results for `C[C@@H]1CN(Cc2cccc(F)c2F)c2ccccc2[C@H](C)N1C(=O)NCc1ccccc1` (racemic) were, in that order, 4 nM, 9 nM and 5 nM.
For `COc1cccc2c1[C@H](C)N(C(=O)Nc1cccnc1)[C@H](C)CN2Cc1ccccc1` (racemic), the IC50 in data set [1] turned out to be 130 nM; in data set [2], 305 nM; in data set [3], 188 nM.
Taken in the same sequence, the figures for `C[C@@H]1CN(Cc2ccncc2)c2ccccc2[C@H](C)N1C(=O)NCc1ccccc1` (racemic) were 1710 nM, greater than 8580 nM and greater than 7260 nM.
The like results for `C[C@@H]1CN(Cc2ccccc2)c2ccccc2[C@H](C)N1S(=O)(=O)c1cn(C)cn1` (racemic) were, in that order, 210 nM, 1490 nM and 576 nM.
As for `C[C@@H]1CN(Cc2ccccc2F)c2ccccc2[C@H](C)N1C(=O)Nc1cccnc1` (racemic), the results for the IC50 in data set [1], in data set [2] and in data set [3] were 5 nM, 11 nM and 4 nM, respectively. Further, the microsomal CLint at 1 µM in data set [4] is 1200 µL/min/mg.
Consider `C[C@@H]1CN(Cc2ccccc2)c2cncnc2[C@H](C)N1C(=O)NCc1ccccc1` (racemic), for which the IC50 in data set [1] is 1000 nM; in data set [2], greater than 6400 nM; in data set [3], greater than 8500 nM.
Take `COc1cccc2c1N(Cc1ccccc1)C[C@@H](C)N(C(=O)Nc1cccnc1)[C@H]2C` (racemic): the IC50 in data set [1] is greater than 9000 nM; in data set [2], greater than 6500 nM; in data set [3], greater than 5300 nM.
Take `C[C@@H]1CN(C(=O)c2ccccc2)c2ccccc2[C@H](C)N1C(=O)NCc1ccccc1` (racemic): the IC50 in data set [1] is greater than 10000 nM; in data set [2], greater than 11500 nM; in data set [3], 6070 nM.
Turning to `COc1ccc(CNC(=O)N2[C@H](C)CN(Cc3ccccc3)c3ccccc3[C@@H]2C)cc1` (racemic), the IC50 in data set [1] is 6 nM; in data set [2], 14 nM; in data set [3] it was 8 nM. Moreover, the microsomal CLint at 1 µM in data set [4] is greater than 1250 µL/min/mg.
On to `C[C@@H]1CN(Cc2ccccc2)c2ccccc2[C@H](C)N1C(=O)OCc1ccccc1` (racemic), for which the IC50 in data set [1] was determined as 473 nM; in data set [2], 841 nM; in data set [3], 420 nM.
Taken in the same sequence, the figures for `C[C@@H]1CN(CCOC(C)(C)C)c2ccccc2[C@H](C)N1C(=O)NCc1ccccc1` (racemic) were 12 nM, 44 nM and 35 nM.
For the compound `C[C@@H]1CN(Cc2ccccc2)c2ccccc2[C@H](C)N1C(=O)CCc1cccnc1` (racemic), the 50% inhibitory concentration (IC50) in data set [1] came out at 10 nM; in data set [2] it was 38 nM; in data set [3], 31 nM. For the same compound, the microsomal CLint at 1 µM in data set [4] was greater than 1250 µL/min/mg.
Taken in the same sequence, the figures for `C[C@@H]1CN(Cc2cccc(C(F)(F)F)n2)c2ccccc2[C@H](C)N1C(=O)NCc1ccccc1` (racemic) were 14 nM, 42 nM, 25 nM and greater than 1250 µL/min/mg.
As for `C[C@H]1c2ccccc2N(Cc2ccccc2)[C@@H](C)CN1C(=O)NCc1ccccc1` (racemic), the values for the IC50 in data set [1], in data set [2] and in data set [3] were 1000 nM, 464 nM and 293 nM, respectively.
The like results for `C[C@@H]1CN(Cc2cccnc2)c2ccccc2[C@H](C)N1C(=O)NCc1ccccc1` (racemic) were, in that order, 95 nM, 500 nM and 476 nM.
Take `C[C@@H]1CN(Cc2ccccc2)c2ccccc2[C@H](C)N1C(=O)N(C)Cc1ccccc1` (racemic): the IC50 in data set [1] was 892 nM; in data set [2], 835 nM; in data set [3] it was 457 nM.
Taken in the same sequence, the figures for `C[C@@H]1CN(Cc2ccccc2)c2ccncc2[C@H](C)N1C(=O)NCc1ccccc1` (racemic) were greater than 8740 nM, greater than 11000 nM and 6280 nM.
Taken in the same sequence, the figures for `C[C@@H]1CN(Cc2ccccc2)c2c(cnn2C)[C@H](C)N1C(=O)NCc1ccccc1` (racemic) were greater than 10000 nM, greater than 7300 nM and greater than 9400 nM.
The like results for `C[C@@H]1CN(S(=O)(=O)c2ccccc2)c2ccccc2[C@H](C)N1C(=O)Nc1cccnc1` (racemic) were, in that order, 1810 nM, 4690 nM and greater than 10000 nM.
Regarding `C[C@@H]1CN(Cc2ccccc2)c2ccccc2CN1C(=O)NCc1ccccc1` (racemic), the IC50 in data set [1] stood at 26 nM; in data set [2], 141 nM; in data set [3], 102 nM. The microsomal CLint at 1 µM in data set [4] was greater than 1250 µL/min/mg.
For the compound `C[C@@H]1CN(Cc2ccccc2)c2nnccc2[C@H](C)N1C(=O)NCc1ccccc1` (racemic), the IC50 in data set [1] was found to be 206 nM; in data set [2], 695 nM; in data set [3] it was 1140 nM.
The like results for `C[C@@H]1CN(Cc2ccccc2)c2cccnc2[C@H](C)N1C(=O)NCc1ccccc1` (racemic) were, in that order, 91 nM, 212 nM and 597 nM.
Turning to `C[C@@H]1CN(Cc2ccc(F)c(F)c2)c2ccccc2[C@H](C)N1C(=O)Nc1cccnc1` (racemic), the values for the IC50 in data set [1], in data set [2] and in data set [3] were 6 nM, 18 nM and 13 nM, respectively. In addition, the microsomal CLint at 1 µM in data set [4] is greater than 1250 µL/min/mg.
Taken in the same sequence, the figures for `C[C@@H]1CN(Cc2ccccc2)c2ccccc2C(=O)N1CCc1ccccc1` (racemic) were 1590 nM, 618 nM, 676 nM and greater than 1250 µL/min/mg.
As to `C[C@@H]1CN(Cc2ccccc2)c2cc(Br)ccc2[C@H](C)N1C(=O)Nc1cccnc1` (racemic), the IC50 in data set [1] amounted to 137 nM; in data set [2], 428 nM; in data set [3], 286 nM.
The like results for `C[C@@H]1CN(Cc2ccccc2)c2ccccc2[C@H](C)N1CC1CCOCC1` (racemic) were, in that order, greater than 10000 nM, 7410 nM and 6110 nM.
Taken in the same sequence, the figures for `C[C@@H]1CN(Cc2ccccn2)c2ccccc2[C@H](C)N1C(=O)NCc1ccccc1` (racemic) were 97 nM, 479 nM and 605 nM.
With `C[C@H]1CN(Cc2ccccc2)c2ccccc2[C@H](C)N1C(=O)NCc1ccccc1` (racemic), the figures for the IC50 in data set [1], in data set [2] and in data set [3] were 95 nM, 340 nM and 279 nM, respectively. Also, the microsomal CLint at 1 µM in data set [4] is greater than 1250 µL/min/mg.
In the case of `C[C@@H]1CN(Cc2ccccc2)c2ccccc2[C@H](C)N1C(=O)C1CCOCC1` (racemic), the concentration for half-maximal inhibition (IC50) in data set [1] was determined as 8 nM; in data set [2], 47 nM; in data set [3] it was 24 nM. Besides, the microsomal CLint at 1 µM in data set [4] turned out to be 1160 µL/min/mg.
With `C[C@@H]1CN(Cc2ccccc2)c2cc(S(C)(=O)=O)ccc2[C@H](C)N1C(=O)Nc1cccnc1` (racemic), the values for the concentration for half-maximal inhibition (IC50) in data set [1], in data set [2] and in data set [3] were greater than 10000 nM, greater than 8000 nM and greater than 10000 nM, respectively.
As for `C[C@@H]1CN(Cc2ccccc2)c2ccccc2[C@H](C)N1C(=O)CN1CCOCC1` (racemic), the values for the IC50 in data set [1], in data set [2] and in data set [3] were 7 nM, 51 nM and 36 nM, respectively. For the same compound, the microsomal CLint at 1 µM in data set [4] was greater than 1250 µL/min/mg.

What is called IC50 is the point on the concentration scale where inhibition reaches its midpoint.
